Measured values reported in US20100002929A1, “Image-based methods for measuring global nuclear patterns as epigenetic markers of cell differentiation” (The Charles Stark Draper Laboratory, Inc., priority 2004, published 2010).

Experiments:
Oct4 promoter = details: combined TSA and 5Aza 2′ deoxycytidine treatment of TE; cited from earlier work
HDAC1 = HDAC1 immunostaining (confocal microscopy) in HeLa cells; details: FIG. 15
hESC = assay: Chromatin mobility by time-lapse confocal microscopy of GFP-H2B transfected hESC; type: cell-based, human; details: hESC transfected with GFP-H2B; data not shown
Method: Chromatin movement was further analyzed in hESC transfected with the fluorescent histone GFP-H2B (FIG. 4). Single confocal slices at 0.4 μm spacing (FIG. 4A) show density variations, including low-density voids (arrow in FIG. 4A, 0.4 μm). The movement of cell-specific bright chromatin densities was analyzed by overlaying images at 0, 5 and 10 min, assigned to the blue, green and red channels respectively (FIGS. 4B-F) and by vector analysis where movement of bright spots was traced with a yellow line at 1 min intervals and red arrows were placed at the last position of the spot (FIG. 4G). Different kinds of nuclear movement were detected including internal mixing of chromatin, indicated by movement of bright chromatin domains without envelope deformation (pluripotent hESC, FIG. 4B), deformation of the envelope and chromatin (pluripotent hESC, FIG. 4C), and multidirectional streaming of chromatin (2 day differentiated hESC, FIG. 4D). Long-range coordination of chromatin movement was infrequent in hESC and prevalent, albeit at slower speeds, in differentiated cells. An increase in coherence length was most noticeable in 5-week differentiated hESC (FIG. 4E). In contrast, endothelial cells show small amplitude, sub-em tethered stochastic movement (FIG. 4F) as reported previously for somatic cells (Marshall, Straight et al. 1997). […]

SMILES | Oct4 expression (Oct4 promoter) | Oct4 promoter methylation (Oct4 promoter) | HDAC1 staining (HDAC1) | effect on chromatin mobility (hESC)
Nc1ncn([C@H]2C[C@H](O)[C@@H](CO)O2)c(=O)n1 [5Aza 2′ deoxycytidine] | induces Oct4 expression | hypomethylates the Oct4 promoter |  | 
CC(/C=C/C(=O)NO)=C\[C@@H](C)C(=O)c1ccc(N(C)C)cc1 [TSA] | induces Oct4 expression | hypomethylates the Oct4 promoter | complete absence of HDAC1 staining | 
C=C1[C@@H](C)[C@H]2[C@H](Cc3ccccc3)NC(=O)[C@]23[C@H](OC(C)=O)/C=C/[C@@](C)(O)C(=O)[C@@H](C)C/C=C/[C@H]3[C@@H]1O [cytochalasin D] |  |  |  | slight acceleration of chromatin mobility
COC(=O)Nc1nc2ccc(C(=O)c3cccs3)cc2[nH]1 [nocodazole] |  |  |  | no effect on chromatin mobility
